ChEMBL document CHEMBL1132866, “Synthesis of glycolipid analogues that disrupt binding of HIV-1 gp120 to galactosylceramide” (Bioorg Med Chem Lett, 2000)

Biological target: Envelope glycoprotein gp160 (Human immunodeficiency virus type 1 group M subtype B (isolate HXB2)(HIV-1), UniProt P04578)
Experiment: Binding affinity towards HIV glycoprotein gp120

Compound: CCCCCCCCCCCCC/C=C/[C@@H](O)[C@H](CO[C@@H]1O[C@@H](CO)[C@H](O)[C@H](O)[C@@H]1O)NC(=O)OCCCCCCCCCCCCCCCCCCCCCCC
- Kd: 11.4 nM
